The numbers were not newly measured in patent publication US20250073197A1, “THE ANTI-INFLAMMATORY ROLE OF CANNABIDIOL, RETINYL PALMITATE, BETA-CARYOPHYLLENE AND TRIBUTYRIN WHEN ADMINISTERED IN CONJUNCTION” (FLG Sciences, LLC, priority 2023, published 2025), which cites them from elsewhere.

The conditions of series [1]: use in the disease named in Table 1 (Diabetes or Dyslipidemia).
The subject of series [2] is 24,000 gene probes.

For the molecule `Cn1c(COc2ccc(CC3SC(=O)NC3=O)cc2)nc2ccccc2c1=O` (stereo not shown) [Balaglitazone], in series [1], the Side effect result is given as “Edema”.
With `CC(C)(Oc1ccc(CCNC(=O)c2ccc(Cl)cc2)cc1)C(=O)O` [Bezafibrate], the Side effect result in series [1] is given as “Hepatotoxicity”.
Regarding `CC(C)OC(=O)C(C)(C)Oc1ccc(C(=O)c2ccc(Cl)cc2)cc1` [Fenofibrates], the Side effect result in series [1] is “Pancreatitis”.
On to `CCc1ccc(CCOc2ccc(CC3SC(=O)NC3=O)cc2)nc1` (stereo not shown) [Pioglitazone], for which, in series [1], the Side effect entry is “Edema”.
`CN(CCOc1ccc(CC2SC(=O)NC2=O)cc1)c1ccccn1` (stereo not shown) [Rosiglitazone]: the Side effect entry in series [1] was “Edema”.
Take cannabidiol [CBD]: in series [2] (Illumina gene array), the gene transcripts down-regulated is 524, the gene transcripts up-regulated is 680, the “genes downregulated 2-fold or more” value was 38 and the “transcripts upregulated 2-fold or more” value is recorded as 123. In addition, the “gene transcripts significantly regulated” value in series [2] (Illumina gene array, 24,000 gene probes) is recorded as 1204.
